ChEMBL document CHEMBL5325391, “Spirolactone-type and enmein-type derivatives as potential anti-cancer agents derived from oridonin” (Bioorg Med Chem, 2022)

Key:
K562 [1] = assay: Antiproliferative activity against human K562 cells assessed as reduction in cell growth after 72 hrs by MTT assay; assay type: functional, cell-based; conditions: K562, 72 h
SW480 = assay: Antiproliferative activity against human SW480 cells assessed as reduction in cell growth after 72 hrs by MTT assay; assay type: functional, cell-based; conditions: SW480, 72 h
MDA-MB-231 = assay: Antiproliferative activity against human MDA-MB-231 cells assessed as reduction in cell growth after 72 hrs by MTT assay; assay type: functional, cell-based; conditions: MDA-MB-231, 72 h
SMMC-7721 = assay: Antiproliferative activity against human SMMC-7721 cells assessed as reduction in cell growth after 72 hrs by MTT assay; assay type: functional, cell-based; conditions: SMMC-7721, 72 h
K562 [2] = assay: Potency index, ratio of oridonin IC50 to compound IC50 for antiproliferative activity against human K562 cells after 72 hrs by MTT assay; assay type: functional
[3] = Cytotoxicity against human L02 cells incubated for 72 hrs by MTT assay; assay type: toxicity, cell-based
[4] = Selectivity index, ratio of IC50 for human L02 cells to IC50 for human SMMC-7721 cells; assay type: toxicity; conditions: L02 cells versus SMMC-7721 cells, read-out: Ratio IC50
K562 [5] = assay: Induction of cell cycle arrest in human K562 cells assessed as accumulation of cells at G1 phase at 100 nM incubated for 48 hrs by PI staining based flow cytometry analysis (reference value: 68.84%); assay type: functional
K562 [6] = assay: Induction of cell cycle arrest in human K562 cells assessed as accumulation of cells at G2 phase at 100 nM incubated for 48 hrs by PI staining based flow cytometry analysis (reference value: 12.31%); assay type: functional
K562 [7] = assay: Induction of cell cycle arrest in human K562 cells assessed as accumulation of cells at S phase at 100 nM incubated for 48 hrs by PI staining based flow cytometry analysis (reference value: 18.85%); assay type: functional
K562 [8] = assay: Induction of cell cycle arrest in human K562 cells assessed as accumulation of cells at G1 phase at 200 nM incubated for 48 hrs by PI staining based flow cytometry analysis (reference value: 68.84%); assay type: functional
K562 [9] = assay: Induction of cell cycle arrest in human K562 cells assessed as accumulation of cells at G2 phase at 200 nM incubated for 48 hrs by PI staining based flow cytometry analysis (reference value: 12.31%); assay type: functional
K562 [10] = assay: Induction of cell cycle arrest in human K562 cells assessed as accumulation of cells at S phase at 200 nM incubated for 48 hrs by PI staining based flow cytometry analysis (reference value: 18.85%); assay type: functional
K562 [11] = assay: Induction of cell cycle arrest in human K562 cells assessed as accumulation of cells at G1 phase at 400 nM incubated for 48 hrs by PI staining based flow cytometry analysis (reference value: 68.84%); assay type: functional
K562 [12] = assay: Induction of cell cycle arrest in human K562 cells assessed as accumulation of cells at G2 phase at 400 nM incubated for 48 hrs by PI staining based flow cytometry analysis (reference value: 12.31%); assay type: functional
K562 [13] = assay: Induction of cell cycle arrest in human K562 cells assessed as accumulation of cells at S phase at 400 nM incubated for 48 hrs by PI staining based flow cytometry analysis (reference value: 18.85%); assay type: functional
K562 [14] = assay: Induction of cell cycle arrest in human K562 cells assessed as downregulation of cdc-2 expression incubated for 48 hrs by Western blot analysis; assay type: functional, cell-based; conditions: dose 100-400 nM
K562 [15] = assay: Induction of cell cycle arrest in human K562 cells assessed as downregulation of cdc-25c expression incubated for 48 hrs by Western blot analysis; assay type: functional, cell-based; conditions: dose 100-400 nM
K562 [16] = assay: Induction of cell cycle arrest in human K562 cells assessed as downregulation of cyclin-B1 expression incubated for 48 hrs by Western blot analysis; assay type: functional, cell-based; conditions: dose 100-400 nM
K562 [17] = assay: Induction of apoptosis in human K562 cells assessed as viable cells at 100 nM incubated for 48 hrs by Annexin-V and PI staining based flow cytometry analysis (reference value: 93.87%); assay type: functional; conditions: read-out: Activity
K562 [18] = assay: Induction of apoptosis in human K562 cells assessed as early apoptotic cells at 100 nM incubated for 48 hrs by Annexin-V and PI staining based flow cytometry analysis (reference value: 1.98%); assay type: functional
K562 [19] = assay: Induction of apoptosis in human K562 cells assessed as late apoptotic cells at 100 nM incubated for 48 hrs by Annexin-V and PI staining based flow cytometry analysis (reference value: 2.42%); assay type: functional
K562 [20] = assay: Induction of apoptosis in human K562 cells assessed as necrotic cells at 100 nM incubated for 48 hrs by Annexin-V and PI staining based flow cytometry analysis (reference value: 1.72%); assay type: functional
K562 [21] = assay: Induction of apoptosis in human K562 cells assessed as viable cells at 200 nM incubated for 48 hrs by Annexin-V and PI staining based flow cytometry analysis (reference value: 93.87%); assay type: functional; conditions: read-out: Activity
K562 [22] = assay: Induction of apoptosis in human K562 cells assessed as early apoptotic cells at 200 nM incubated for 48 hrs by Annexin-V and PI staining based flow cytometry analysis (reference value: 1.98%); assay type: functional
K562 [23] = assay: Induction of apoptosis in human K562 cells assessed as late apoptotic cells at 200 nM incubated for 48 hrs by Annexin-V and PI staining based flow cytometry analysis (reference value: 2.42%); assay type: functional
K562 [24] = assay: Induction of apoptosis in human K562 cells assessed as necrotic cells at 200 nM incubated for 48 hrs by Annexin-V and PI staining based flow cytometry analysis (reference value: 1.72%); assay type: functional
K562 [25] = assay: Induction of apoptosis in human K562 cells assessed as viable cells at 400 nM incubated for 48 hrs by Annexin-V and PI staining based flow cytometry analysis (reference value: 93.87%); assay type: functional; conditions: read-out: Activity
K562 [26] = assay: Induction of apoptosis in human K562 cells assessed as early apoptotic cells at 400 nM incubated for 48 hrs by Annexin-V and PI staining based flow cytometry analysis (reference value: 1.98%); assay type: functional
K562 [27] = assay: Induction of apoptosis in human K562 cells assessed as late apoptotic cells at 400 nM incubated for 48 hrs by Annexin-V and PI staining based flow cytometry analysis (reference value: 2.42%); assay type: functional
K562 [28] = assay: Induction of apoptosis in human K562 cells assessed as necrotic cells at 400 nM incubated for 48 hrs by Annexin-V and PI staining based flow cytometry analysis (reference value: 1.72%); assay type: functional
Cell membrane [29] = assay: Induction of mitochondrial membrane depolarization in human K562 cells assessed as lower right phase cells at […] incubated for 48 hrs by JC-1 staining based flow cytometry analysis; conditions: Mitochondria
Cell membrane [30] = assay: Induction of mitochondrial membrane depolarization in human K562 cells incubated for 48 hrs by JC-1 staining based flow cytometry analysis; conditions: Mitochondria, dose […]
K562 [31] = assay: Induction of ROS generation in human K562 cells incubated for 48 hrs by DCFH-DA staining based flow cytometry analysis; assay type: functional, cell-based; conditions: dose […]
K562 [32] = assay: Induction of ROS generation in human K562 cells at 400 nM incubated for 48 hrs by DCFH-DA staining based flow cytometry analysis (reference value: 4.82%); assay type: functional

C=C1C(=O)[C@@]23C(=O)OC[C@]4(C=CCC(C)(C)[C@H]4C=O)[C@@H]2CC[C@@H]1[C@H]3OC(=O)/C=C/c1cccnc1
IC50 (K562 [1]): 400 nM | IC50 (SW480): 480 nM | IC50 (MDA-MB-231): 980 nM | IC50 (SMMC-7721): 560 nM | Ratio IC50 (K562 [2]): 10 | IC50 at 72 h [3]: 4280 nM | selectivity ratio [4]: 7.64 | Activity (K562 [5]): 64.33% | Activity (K562 [6]): 15.07% | Activity (K562 [7]): 20.6% | Activity (K562 [8]): 61.3% | Activity (K562 [9]): 13.9% | Activity (K562 [10]): 24.8% | Activity (K562 [11]): 55.2% | Activity (K562 [12]): 20.53% | Activity (K562 [13]): 24.28% | Activity (K562 [14]): Dose-Dependent Effect | Activity (K562 [15]): Dose-Dependent Effect | Activity (K562 [16]): Dose-Dependent Effect | viability at 0.1 µM (K562 [17]): 86% | Activity (K562 [18]): 5.01% | Activity (K562 [19]): 5.59% | Activity (K562 [20]): 3.37% | viability at 0.2 µM (K562 [21]): 80.9% | Activity (K562 [22]): 7.6% | Activity (K562 [23]): 7.23% | Activity (K562 [24]): 4.23% | viability at 0.4 µM (K562 [25]): 68.7% | Activity (K562 [26]): 9.41% | Activity (K562 [27]): 15.5% | Activity (K562 [28]): 6.37% | Activity (Cell membrane [29]): 28.4% | Activity (Cell membrane [30]): Dose-Dependent Effect | Activity (K562 [31]): Dose-Dependent Effect | Activity (K562 [32]): 27.83%
